Test results published in ChEMBL document CHEMBL5352390, “Design, synthesis and biological evaluation of (Quinazoline 4-yloxy)acetamide and (4-oxoquinazoline-3(4H)-yl)acetamide derivatives as inhibitors of Mycobacterium tuberculosis bd oxidase” (2022).
Converted amounts (≈) assume the structure as drawn.

Test system: Mycobacterium tuberculosis
Assay: Antimycobacterial activity against Mycobacterium tuberculosis H37Rv harboring qcrB deletion mutant assessed as inhibition of bacterial growth incubated for 7 days by resazurin microplate assay
Assay type: functional
Conditions: time 7 day

SMILES | MIC
O=C(Cn1cnc2ccccc2c1=O)Nc1ccccc1 | >32 µM
O=C(Cn1cnc2ccccc2c1=O)Nc1ccc(OC(F)(F)F)cc1 | >32 µM
O=C(Cn1cnc2ccccc2c1=O)Nc1ccc(F)cc1 | >32 µM
O=C(COc1ncnc2ccccc12)Nc1ccc(F)cc1 | >32 µM
O=C(COc1ncnc2ccccc12)Nc1ccc(C(F)(F)F)cc1 | >32 µM
CSc1ccc(NC(=O)Cn2cnc3ccccc3c2=O)cc1 | >32 µM
O=C(COc1ncnc2ccccc12)NCc1ccccc1 | >32 µM
O=C(Cn1cnc2ccccc2c1=O)Nc1ccc(Cl)cc1 | >32 µM
O=C(COc1ncnc2ccccc12)NCc1ccc(N2CCN(c3ccc(F)cc3)CC2)cc1 | >32 µM
Cc1ccc(NC(=O)Cn2cnc3ccccc3c2=O)cc1 | >32 µM
O=C(COc1ncnc2ccccc12)NCc1ccc(N2CCN(Cc3ccccc3)CC2)cc1 | >32 µM
O=C(COc1ncnc2ccccc12)Nc1ccccc1 | 8 µM (≈ 2.23 µg/mL)
COc1ccc(NC(=O)COc2ncnc3ccccc23)cc1 | >32 µM
O=C(Cn1cnc2ccccc2c1=O)Nc1ccc(C(F)(F)F)cc1 | >32 µM
Cc1ccccc1NC(=O)COc1ncnc2ccccc12 | >32 µM
O=C(COc1ncnc2ccccc12)Nc1ccc(Br)cc1 | >32 µM
COc1ccc(N2CCN(c3ccc(CNC(=O)COc4ncnc5ccccc45)cc3)CC2)cc1 | >32 µM
COc1ccc(NC(=O)Cn2cnc3ccccc3c2=O)cc1 | >32 µM
O=C(COc1ncnc2ccccc12)Nc1ccc(Cl)cc1 | 16 µM (≈ 5.02 µg/mL)
Cc1ccc(NC(=O)COc2ncnc3ccccc23)cc1 | >32 µM
O=C(COc1ncnc2ccccc12)NCc1ccc(N2CCN(c3ccccc3)CC2)cc1 | >32 µM
COc1ccccc1NC(=O)Cn1cnc2ccccc2c1=O | >32 µM
O=C(Cn1cnc2ccccc2c1=O)Nc1ccc(Br)cc1 | >32 µM
O=C(Cn1cnc2ccccc2c1=O)NC1=C(C(F)(F)F)CCC=C1 | >32 µM
O=C(COc1ncnc2ccccc12)Nc1cccc2ccccc12 | >32 µM
COc1ccccc1NC(=O)COc1ncnc2ccccc12 | >32 µM
O=C(Cn1cnc2ccccc2c1=O)Nc1ccc([N+](=O)[O-])cc1 | >32 µM
O=C(COc1ncnc2ccccc12)Nc1ccc(OC(F)(F)F)cc1 | >32 µM
O=C(COc1ncnc2ccccc12)NCc1ccc(N2CCC(c3ccccc3)CC2)cc1 | >32 µM
